From patent US20200325177A1, “METHODS OF MAKING STREPTOGRAMIN COMPOSITIONS AND THE USE THEREOF” (THE REGENTS OF THE UNIVERSITY OF CALIFORNIA, priority 2017, published 2020)
In brackets after ≈: the same amount, converted by molar mass. Read-outs that look alike come from different tables or passages of the source.

Legend:
Assay type in all cases: cell-based
E. faecalis = assay: MIC, Gram-positive bacteria: E. faecalis; conditions: Enterococcus faecalis, column 1, read-out: Minimal Inhibitory Concentration (MIC) E. faecalis
E. faecium ATCC 35667 = assay: MIC, Gram-positive bacteria: E. faecium ATCC 35667; conditions: Enterococcus faecium, ATCC35667, column 2, read-out: Minimal Inhibitory Concentration (MIC) E. faecium ATCC 35667
E. faecium VRE; vanA = assay: MIC, Gram-positive bacteria: E. faecium VRE; vanA; conditions: Enterococcus faecium, column 3, read-out: Minimal Inhibitory Concentration (MIC) E. faecium VRE
S. aureus = assay: MIC, Gram-positive bacteria: S. aureus (strains not named); conditions: Staphylococcus aureus, read-out: Minimal Inhibitory Concentration (MIC) S. aureus
[1] = test system: S. aureus Vat A streptogramin; assay: MIC, Gram-positive bacteria: S. aureus Vat A streptogramin; conditions: Staphylococcus aureus; Gram-positive; column 5; read-out: Minimal Inhibitory Concentration (MIC) S. aureus Vat A streptogramin
[2] = test system: S. aureus Linezolid-resistant; cfr; assay: MIC, Gram-positive bacteria: S. aureus Linezolid-resistant; cfr; conditions: Staphylococcus aureus, column 9, read-out: Minimal Inhibitory Concentration (MIC) S. aureus Linezolid-resistant
S. pneumoniae = assay: MIC, Gram-positive bacteria: S. pneumoniae; conditions: Streptococcus pneumoniae, column 10, read-out: Minimal Inhibitory Concentration (MIC) S. pneumoniae
[3] = test system: K. pneumoniae multidrug-resistant; assay: MIC, Gram-negative bacteria: K. pneumoniae multidrug-resistant; conditions: Klebsiella pneumoniae, read-out: Minimal Inhibitory Concentration (MIC) K. pneumoniae multidrug-resistant
P. aeruginosa ATCC 27853 = assay: MIC, Gram-negative bacteria: P. aeruginosa ATCC 27853; conditions: Pseudomonas aeruginosa, ATCC27853, read-out: Minimal Inhibitory Concentration (MIC) P. aeruginosa ATCC 27853
[4] = test system: P. aeruginosa MDR clinical isolate; assay: MIC, Gram-negative bacteria: P. aeruginosa MDR clinical isolate; conditions: Pseudomonas aeruginosa, read-out: Minimal Inhibitory Concentration (MIC) P. aeruginosa MDR clinical isolate
H. influenzae ATCC 49247 = assay: MIC, Gram-negative bacteria: H. influenzae ATCC 49247; conditions: Haemophilus influenzae, ATCC49247, read-out: Minimal Inhibitory Concentration (MIC) H. influenzae ATCC 49247
Gram-Negative Organisms = assay: microbe, parasite or virus in culture
[5] = first unnamed S. aureus column (c4)
[6] = fourth unnamed S. aureus column (c8)
[7] = second unnamed S. aureus column (c6)
[8] = third unnamed S. aureus column (c7)
[9] = Acinetobacter baumannii, ATCC19606, read-out: Minimal Inhibitory Concentration (MIC), A. baumannii ATCC 19606
[10] = Escherichia coli, ATCC25922, read-out: Minimal Inhibitory Concentration (MIC), E. coli ATCC 25922
[11] = Escherichia coli, read-out: Minimal Inhibitory Concentration (MIC), E. coli BAS2006, OMP C, OMP F
[12] = Escherichia coli, read-out: Minimal Inhibitory Concentration (MIC), E. coli olC efflux defective
[13] = Escherichia coli, read-out: Minimal Inhibitory Concentration (MIC), E. coli permeability mutant BAS1314, IMP4213ZAB::TN10
[14] = Escherichia coli, read-out: Minimal Inhibitory Concentration (MIC), E. coli ΔompC768, KanR insert
[15] = Klebsiella pneumoniae, ATCC43816, read-out: Minimal Inhibitory Concentration (MIC), K. pneumoniae ATCC 43816

CC1=C\[C@@H](O)CC(=O)Cc2nc(co2)C(=O)N2CCC[C@@H]2C(=O)O[C@H]([C@H](C)COC(=O)Nc2ccc(Br)nc2)[C@H](C)/C=C/C(=O)NC\C=C\1 [SA0110209]
MIC (E. faecalis): > 64 µg/mL | MIC (E. faecium ATCC 35667): 16 µg/mL (≈ 21.5 µM) | MIC (E. faecium VRE; vanA): > 64 µg/mL | MIC (S. aureus; [5]): 16 µg/mL (≈ 21.5 µM) | MIC (S. aureus; [6]): 16 µg/mL (≈ 21.5 µM) | MIC (S. aureus; [7]): 16 µg/mL (≈ 21.5 µM) | MIC (S. aureus; [8]): > 64 µg/mL | MIC [1]: > 64 µg/mL | MIC [2]: > 64 µg/mL | MIC (S. pneumoniae): 16 µg/mL (≈ 21.5 µM) | MIC [3]: > 64 µg/mL | MIC (P. aeruginosa ATCC 27853): > 64 µg/mL | MIC [4]: > 64 µg/mL | MIC (H. influenzae ATCC 49247): 8 µg/mL (≈ 10.8 µM) | MIC (Gram-Negative Organisms; [9]): > 64 µg/mL | MIC (Gram-Negative Organisms; [10]): > 64 µg/mL | MIC (Gram-Negative Organisms; [11]): > 64 µg/mL | MIC (Gram-Negative Organisms; [12]): 2 µg/mL (≈ 2.69 µM) | MIC (Gram-Negative Organisms; [13]): 2 µg/mL (≈ 2.69 µM) | MIC (Gram-Negative Organisms; [14]): > 64 µg/mL | MIC (Gram-Negative Organisms; [15]): > 64 µg/mL

CC1=C\[C@@H](O)CC(=O)Cc2nc(co2)C(=O)N2CCC[C@@H]2C(=O)O[C@H]([C@H](C)COC(=O)Nc2coc(C)n2)[C@H](C)/C=C/C(=O)NC\C=C\1 [SA0110210]
MIC (E. faecalis): > 64 µg/mL | MIC (E. faecium ATCC 35667): 64 µg/mL (≈ 95.8 µM) | MIC (E. faecium VRE; vanA): 64 µg/mL (≈ 95.8 µM) | MIC (S. aureus; [5]): > 64 µg/mL | MIC (S. aureus; [6]): > 64 µg/mL | MIC (S. aureus; [7]): > 64 µg/mL | MIC (S. aureus; [8]): > 64 µg/mL | MIC [1]: > 64 µg/mL | MIC [2]: > 64 µg/mL | MIC (S. pneumoniae): 64 µg/mL (≈ 95.8 µM) | MIC [3]: > 64 µg/mL | MIC (P. aeruginosa ATCC 27853): > 64 µg/mL | MIC [4]: > 64 µg/mL | MIC (H. influenzae ATCC 49247): 16 µg/mL (≈ 24 µM) | MIC (Gram-Negative Organisms; [9]): > 64 µg/mL | MIC (Gram-Negative Organisms; [10]): > 64 µg/mL | MIC (Gram-Negative Organisms; [11]): > 64 µg/mL | MIC (Gram-Negative Organisms; [12]): 8 µg/mL (≈ 12 µM) | MIC (Gram-Negative Organisms; [13]): 8 µg/mL (≈ 12 µM) | MIC (Gram-Negative Organisms; [14]): > 64 µg/mL | MIC (Gram-Negative Organisms; [15]): > 64 µg/mL

CC1=C\[C@@H](O)CC(=O)Cc2nc(co2)C(=O)N2CCC[C@@H]2C(=O)O[C@H]([C@H](C)COC(=O)Nc2csc(C)n2)[C@H](C)/C=C/C(=O)NC\C=C\1 [SA0110214]
MIC (E. faecalis): > 64 µg/mL | MIC (E. faecium ATCC 35667): 32 µg/mL (≈ 46.8 µM) | MIC (E. faecium VRE; vanA): 64 µg/mL (≈ 93.6 µM) | MIC (S. aureus; [5]): 64 µg/mL (≈ 93.6 µM) | MIC (S. aureus; [6]): 64 µg/mL (≈ 93.6 µM) | MIC (S. aureus; [7]): 64 µg/mL (≈ 93.6 µM) | MIC (S. aureus; [8]): > 64 µg/mL | MIC [1]: > 64 µg/mL | MIC [2]: > 64 µg/mL | MIC (S. pneumoniae): 32 µg/mL (≈ 46.8 µM) | MIC [3]: > 64 µg/mL | MIC (P. aeruginosa ATCC 27853): > 64 µg/mL | MIC [4]: > 64 µg/mL | MIC (H. influenzae ATCC 49247): 16 µg/mL (≈ 23.4 µM) | MIC (Gram-Negative Organisms; [9]): > 64 µg/mL | MIC (Gram-Negative Organisms; [10]): > 64 µg/mL | MIC (Gram-Negative Organisms; [11]): 64 µg/mL (≈ 93.6 µM) | MIC (Gram-Negative Organisms; [12]): 8 µg/mL (≈ 11.7 µM) | MIC (Gram-Negative Organisms; [13]): 8 µg/mL (≈ 11.7 µM) | MIC (Gram-Negative Organisms; [14]): > 64 µg/mL | MIC (Gram-Negative Organisms; [15]): > 64 µg/mL

CC1=C\[C@@H](O)CC(=O)Cc2nc(co2)C(=O)N2CCC[C@@H]2C(=O)O[C@H]([C@H](C)COC(=O)Nc2cnccn2)[C@H](C)/C=C/C(=O)NC\C=C\1 [SA0110215]
MIC (E. faecalis): > 64 µg/mL | MIC (E. faecium ATCC 35667): 64 µg/mL (≈ 96.3 µM) | MIC (E. faecium VRE; vanA): > 64 µg/mL | MIC (S. aureus; [5]): > 64 µg/mL | MIC (S. aureus; [6]): > 64 µg/mL | MIC (S. aureus; [7]): > 64 µg/mL | MIC (S. aureus; [8]): > 64 µg/mL | MIC [1]: > 64 µg/mL | MIC [2]: > 64 µg/mL | MIC (S. pneumoniae): 64 µg/mL (≈ 96.3 µM) | MIC [3]: > 64 µg/mL | MIC (P. aeruginosa ATCC 27853): > 64 µg/mL | MIC [4]: > 64 µg/mL | MIC (H. influenzae ATCC 49247): 16 µg/mL (≈ 24.1 µM) | MIC (Gram-Negative Organisms; [9]): > 64 µg/mL | MIC (Gram-Negative Organisms; [10]): > 64 µg/mL | MIC (Gram-Negative Organisms; [11]): > 64 µg/mL | MIC (Gram-Negative Organisms; [12]): 8 µg/mL (≈ 12 µM) | MIC (Gram-Negative Organisms; [13]): 16 µg/mL (≈ 24.1 µM) | MIC (Gram-Negative Organisms; [14]): > 64 µg/mL | MIC (Gram-Negative Organisms; [15]): > 64 µg/mL

CC1=C\[C@@H](O)CC(=O)Cc2nc(co2)C(=O)N2CCC[C@@H]2C(=O)O[C@H]([C@H](C)COC(=O)Nc2ccn(C)n2)[C@H](C)/C=C/C(=O)NC\C=C\1 [SA0110218]
MIC (E. faecalis): > 64 µg/mL | MIC (E. faecium ATCC 35667): > 64 µg/mL | MIC (E. faecium VRE; vanA): > 64 µg/mL | MIC (S. aureus; [5]): > 64 µg/mL | MIC (S. aureus; [6]): > 64 µg/mL | MIC (S. aureus; [7]): > 64 µg/mL | MIC (S. aureus; [8]): > 64 µg/mL | MIC [1]: > 64 µg/mL | MIC [2]: > 64 µg/mL | MIC (S. pneumoniae): > 64 µg/mL | MIC [3]: > 64 µg/mL | MIC (P. aeruginosa ATCC 27853): > 64 µg/mL | MIC [4]: > 64 µg/mL | MIC (H. influenzae ATCC 49247): 32 µg/mL (≈ 48 µM) | MIC (Gram-Negative Organisms; [9]): > 64 µg/mL | MIC (Gram-Negative Organisms; [10]): > 64 µg/mL | MIC (Gram-Negative Organisms; [11]): > 64 µg/mL | MIC (Gram-Negative Organisms; [12]): 16 µg/mL (≈ 24 µM) | MIC (Gram-Negative Organisms; [13]): 32 µg/mL (≈ 48 µM) | MIC (Gram-Negative Organisms; [14]): > 64 µg/mL | MIC (Gram-Negative Organisms; [15]): > 64 µg/mL

CC1=C\[C@@H](O)CC(=O)Cc2nc(co2)C(=O)N2CCC[C@@H]2C(=O)O[C@H]([C@H](C)COC(=O)Nc2ccccn2)[C@H](C)/C=C/C(=O)NC\C=C\1 [SA0110222]
MIC (E. faecalis): > 64 µg/mL | MIC (E. faecium ATCC 35667): 32 µg/mL (≈ 48.2 µM) | MIC (E. faecium VRE; vanA): 64 µg/mL (≈ 96.4 µM) | MIC (S. aureus; [5]): > 64 µg/mL | MIC (S. aureus; [6]): 64 µg/mL (≈ 96.4 µM) | MIC (S. aureus; [7]): > 64 µg/mL | MIC (S. aureus; [8]): > 64 µg/mL | MIC [1]: > 64 µg/mL | MIC [2]: > 64 µg/mL | MIC (S. pneumoniae): 32 µg/mL (≈ 48.2 µM) | MIC [3]: > 64 µg/mL | MIC (P. aeruginosa ATCC 27853): > 64 µg/mL | MIC [4]: > 64 µg/mL | MIC (H. influenzae ATCC 49247): 16 µg/mL (≈ 24.1 µM) | MIC (Gram-Negative Organisms; [9]): > 64 µg/mL | MIC (Gram-Negative Organisms; [10]): > 64 µg/mL | MIC (Gram-Negative Organisms; [11]): 64 µg/mL (≈ 96.4 µM) | MIC (Gram-Negative Organisms; [12]): 4 µg/mL (≈ 6.03 µM) | MIC (Gram-Negative Organisms; [13]): 16 µg/mL (≈ 24.1 µM) | MIC (Gram-Negative Organisms; [14]): > 64 µg/mL | MIC (Gram-Negative Organisms; [15]): > 64 µg/mL
